Measurements reported in patent US8883782B2, “Spiro-tetracyclic ring compounds as beta-secretase modulators and methods of use” (Amgen Inc., priority 2010, dated 2014).

How the values were obtained:
[1] = target: Beta Secretase enzyme (BACE) (Homo sapiens, UniProt P56817); experiment: In vitro enzymatic BACE FRET (fluorescence resonance energy transfer) assay; format: biochemical; conditions: average IC50, enzyme assay; read-out: BACE 1 FRET assay
Summary of the method: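 Fluorescence read after Tris quench (pH raised to neutrality) of a one-hour BACE reaction. Buffer: acetate 0.05 M, pH 4.2, with 100 uM genapol and 10% DMSO final; started by adding 50 nM FRET peptide substrate spanning the cleavage site.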

[2] = system: Aβ40 in conditioned medium of cells stably expressing Amyloid Precursor Protein (APP); experiment: In vitro BACE cell-based assay (Aβ40 in conditioned medium, sandwich ELISA); conditions: Homo sapiens, HEK293, average IC50; read-out: HEK cell assay
Summary of the method: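 Secreted Aβ40 is captured with pAb40 and detected with biotinylated 6E10, read by europium time-resolved fluorescence. IC50 comes from percent inhibition versus concentration.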

Sequence of Beta Secretase enzyme (BACE) (P56817 46-501, species assumed): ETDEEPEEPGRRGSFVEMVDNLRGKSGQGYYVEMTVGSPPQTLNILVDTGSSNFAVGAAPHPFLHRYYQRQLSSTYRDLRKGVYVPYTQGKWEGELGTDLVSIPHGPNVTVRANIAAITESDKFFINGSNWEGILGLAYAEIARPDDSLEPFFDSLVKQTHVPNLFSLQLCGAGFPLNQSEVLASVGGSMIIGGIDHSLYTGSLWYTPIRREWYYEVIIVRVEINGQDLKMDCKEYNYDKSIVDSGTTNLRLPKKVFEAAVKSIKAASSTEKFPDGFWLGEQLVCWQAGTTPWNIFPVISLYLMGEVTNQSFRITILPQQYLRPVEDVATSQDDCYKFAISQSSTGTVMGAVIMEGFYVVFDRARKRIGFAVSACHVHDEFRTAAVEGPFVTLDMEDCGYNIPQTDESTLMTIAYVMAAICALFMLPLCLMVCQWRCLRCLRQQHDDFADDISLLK

Structure (SMILES)	IC50 [1]	IC50 [2]
NC1=N[C@@]2(CO1)c1cc(-c3cccnc3F)ccc1Oc1cc(F)c(-c3ccncc3)cc12 [Example 321, (4S)-3′-fluoro-7′-(2-fluoro-3-pyridinyl)-2′-(4-pyridinyl)spiro[1,3-oxazole-4,9′-xanthen]-2-amine]	20.3 nM	61.5 nM
Cc1ccc(-c2ccc3c(c2)[C@@]2(COC(N)=N2)c2cc(C4=CCOCC4)cnc2O3)o1 [Example 324, (5S)-3-(3,6-dihydro-2H-pyran-4-yl)-7-(5-methyl-2-furanyl)spiro[chromeno[2,3-b]pyridine-5,4′-[1,3]oxazol]-2′-amine]	42 nM	158 nM
CC1(COc2cc3c(cc2F)Oc2ccc(-c4ccnc(Cl)c4)cc2[C@@]32COC(N)=N2)COC1 [Example 325, (4S)-7′-(2-chloro-4-pyridinyl)-3′-fluoro-2′-((3-methyl-3-oxetanyl)methoxy)spiro[1,3-oxazole-4,9′-xanthen]-2-amine]	50.2 nM	255 nM
CC1(COc2cc3c(cc2F)Oc2ccc(-c4ccc(F)nc4)cc2[C@@]32COC(N)=N2)COC1 [Example 326, (4S)-3′-fluoro-7′-(6-fluoro-3-pyridinyl)-2′-((3-methyl-3-oxetanyl)methoxy)spiro[1,3-oxazole-4,9′-xanthen]-2-amine]	19.7 nM	61.6 nM
Cc1cncc(-c2ccc3c(c2)[C@@]2(COC(N)=N2)c2cc(OCC4(C)COC4)c(F)cc2O3)c1 [Example 328, (4S)-3′-fluoro-2′-((3-methyl-3-oxetanyl)methoxy)-7′-(5-methyl-3-pyridinyl)spiro[1,3-oxazole-4,9′-xanthen]-2-amine]	23.6 nM	45.6 nM
COc1cncc(-c2ccc3c(c2)[C@@]2(COC(N)=N2)c2cc(OCC4(C)COC4)c(F)cc2O3)c1 [Example 329, (4S)-3′-fluoro-7′-(5-methoxy-3-pyridinyl)-2′-((3-methyl-3-oxetanyl)methoxy)spiro[1,3-oxazole-4,9′-xanthen]-2-amine]	8.9 nM	52.5 nM
CC1(COc2cc3c(cc2F)Oc2ccc(-c4cncc(C#N)c4)cc2[C@@]32COC(N)=N2)COC1 [Example 330, 5-((4S)-2-amino-6′-fluoro-7′-((3-methyl-3-oxetanyl)methoxy)spiro[1,3-oxazole-4,9′-xanthen]-2′-yl)-3-pyridinecarbonitrile]	8.8 nM	33.6 nM
CC1(COc2cc3c(cc2F)Oc2ccc(-c4cccc(C#N)c4)cc2[C@@]32COC(N)=N2)COC1 [Example 331, 3-((4S)-2-amino-6′-fluoro-7′-((3-methyl-3-oxetanyl)methoxy)spiro[1,3-oxazole-4,9′-xanthen]-2′-yl)benzonitrile]	13.9 nM	85.5 nM
Cn1cc(-c2ccc3c(c2)[C@@]2(COC(N)=N2)c2cc(OCC4(C)COC4)c(F)cc2O3)cn1 [Example 332, (4S)-3′-fluoro-2′-((3-methyl-3-oxetanyl)methoxy)-7′-(1-methyl-1H-pyrazol-4-yl)spiro[1,3-oxazole-4,9′-xanthen]-2-amine]	545 nM	490 nM
NC1=N[C@@]2(CO1)c1cc(-c3cccnc3F)ccc1Oc1cc(F)c(C3CCOCC3)cc12 [Example 334, (4S)-3′-fluoro-7′-(2-fluoro-3-pyridinyl)-2′-(tetrahydro-2H-pyran-4-yl)spiro[1,3-oxazole-4,9′-xanthen]-2-amine]	18.9 nM	67.6 nM
NC1=N[C@]2(CO1)c1cc(N3CCOCC3)ccc1Oc1cc(F)c(-c3cncnc3)cc12 [Example 335, (4S)-3′-fluoro-7′-(4-morpholinyl)-2′-(5-pyrimidinyl)spiro[1,3-oxazole-4,9′-xanthen]-2-amine]	16.4 nM	43.3 nM
CC(C)(C)C#Cc1cnc2c(c1)[C@@]1(COC(N)=N1)c1c(ccc(-c3cncnc3)c1F)O2 [Example 337, (5S)-3-(3,3-dimethyl-1-butyn-1-yl)-6-fluoro-7-(5-pyrimidinyl)spiro[chromeno[2,3-b]pyridine-5,4′-[1,3]oxazol]-2′-amine]	836 nM	535 nM
CC(C)(C)C#Cc1cnc2c(c1)[C@@]1(COC(N)=N1)c1cc(-c3cncnc3)c(F)cc1O2 [Example 338, (5R)-3-(3,3-dimethyl-1-butyn-1-yl)-8-fluoro-7-(5-pyrimidinyl)spiro[chromeno[2,3-b]pyridine-5,4′-[1,3]oxazol]-2′-amine]	213 nM	1240 nM
CC1(C#Cc2cnc3c(c2)[C@@]2(COC(N)=N2)c2c(ccc(-c4cccnc4F)c2F)O3)COC1 [Example 341, (5S)-6-fluoro-7-(2-fluoro-3-pyridinyl)-3-((3-methyl-3-oxetanyl)ethynyl)spiro[chromeno[2,3-b]pyridine-5,4′-[1,3]oxazol]-2′-amine]	154 nM	566 nM
CC1(C#Cc2cnc3c(c2)[C@@]2(COC(N)=N2)c2c(ccc(-c4ccc(F)nc4)c2F)O3)COC1 [Example 343, (5S)-6-fluoro-7-(6-fluoro-3-pyridinyl)-3-((3-methyl-3-oxetanyl)ethynyl)spiro[chromeno[2,3-b]pyridine-5,4′-[1,3]oxazol]-2′-amine]	391 nM	1840 nM
CC1(C#Cc2cnc3c(c2)[C@@]2(COC(N)=N2)c2c(ccc(-c4cncnc4)c2F)O3)COC1 [Example 345, (5S)-6-fluoro-3-((3-methyl-3-oxetanyl)ethynyl)-7-(5-pyrimidinyl)spiro[chromeno[2,3-b]pyridine-5,4′-[1,3]oxazol]-2′-amine]	94 nM	650 nM
NC1=N[C@@]2(CO1)c1cc(C3=CCOCC3)cnc1Oc1ccc(-c3cccnc3F)c(F)c12 [Example 347, (5S)-3-(3,6-dihydro-2H-pyran-4-yl)-6-fluoro-7-(2-fluoro-3-pyridinyl)spiro[chromeno[2,3-b]pyridine-5,4′-[1,3]oxazol]-2′-amine]	356 nM	457 nM
CC1(C)C=C(c2cnc3c(c2)[C@@]2(COC(N)=N2)c2c(ccc(-c4cccnc4F)c2F)O3)CCO1 [Example 350, (5S)-3-(6,6-dimethyl-3,6-dihydro-2H-pyran-4-yl)-6-fluoro-7-(2-fluoro-3-pyridinyl)spiro[chromeno[2,3-b]pyridine-5,4′-[1,3]oxazol]-2′-amine]	530 nM	685 nM

Compounds with a lower IC50 [1], results first:

IC50 [1]	IC50 [2]	Structure (SMILES)
3.6 nM	26.1 nM	COc1cccc(-c2ccc3c(c2)[C@@]2(COC(N)=N2)c2cc(C4=CCOCC4)cnc2O3)c1 [Example 322, (5S)-3-(3,6-dihydro-2H-pyran-4-yl)-7-(3-methoxyphenyl)spiro[chromeno[2,3-b]pyridine-5,4′-[1,3]oxazol]-2′-amine]
1.4 nM	15.5 nM	COc1ccc(F)c(-c2ccc3c(c2)[C@@]2(COC(N)=N2)c2cc(C4=CCOCC4)cnc2O3)c1 [Example 323, (5S)-3-(3,6-dihydro-2H-pyran-4-yl)-7-(2-fluoro-5-methoxyphenyl)spiro[chromeno[2,3-b]pyridine-5,4′-[1,3]oxazol]-2′-amine]
4.1 nM	21.5 nM	CC1(COc2cc3c(cc2F)Oc2ccc(-c4cncc(F)c4)cc2[C@@]32COC(N)=N2)COC1 [Example 327, (4S)-3′-fluoro-7′-(5-fluoro-3-pyridinyl)-2′-((3-methyl-3-oxetanyl)methoxy)spiro[1,3-oxazole-4,9′-xanthen]-2-amine]
2.4 nM	21.8 nM	CC1(COc2cc3c(cc2F)Oc2ccc(-c4cncc(Cl)c4)cc2[C@@]32COC(N)=N2)COC1 [Example 333, (4S)-7′-(5-chloro-3-pyridinyl)-3′-fluoro-2′-((3-methyl-3-oxetanyl)methoxy)spiro[1,3-oxazole-4,9′-xanthen]-2-amine]
6.4 nM	19.3 nM	CC(C)(O)C#Cc1ccc2c(c1)[C@]1(COC(N)=N1)c1cc(-c3cncnc3)c(F)cc1O2 [Example 336, 4-((4R)-2-amino-6′-fluoro-7′-(5-pyrimidinyl)spiro[1,3-oxazole-4,9′-xanthen]-2′-yl)-2-methyl-3-butyn-2-ol]
2.4 nM	16 nM	CC1(C#Cc2cnc3c(c2)[C@]2(COC(N)=N2)c2c(ccc(-c4ccc(F)nc4)c2F)O3)COC1 [Example 342, (5R)-6-fluoro-7-(6-fluoro-3-pyridinyl)-3-((3-methyl-3-oxetanyl)ethynyl)spiro[chromeno[2,3-b]pyridine-5,4′-[1,3]oxazol]-2′-amine]
1 nM	6.5 nM	CC1(C#Cc2cnc3c(c2)[C@]2(COC(N)=N2)c2c(ccc(-c4cncnc4)c2F)O3)COC1 [Example 344, (5R)-6-fluoro-3-((3-methyl-3-oxetanyl)ethynyl)-7-(5-pyrimidinyl)spiro[chromeno[2,3-b]pyridine-5,4′-[1,3]oxazol]-2′-amine]
0.8 nM	6.7 nM	NC1=N[C@]2(CO1)c1cc(C3=CCOCC3)cnc1Oc1ccc(-c3cccnc3F)c(F)c12 [Example 346, (5R)-3-(3,6-dihydro-2H-pyran-4-yl)-6-fluoro-7-(2-fluoro-3-pyridinyl)spiro[chromeno[2,3-b]pyridine-5,4′-[1,3]oxazol]-2′-amine]
0.8 nM	8.8 nM	CC1(C)C=C(c2cnc3c(c2)[C@]2(COC(N)=N2)c2c(ccc(-c4cccnc4F)c2F)O3)CCO1 [Example 348, (5R)-3-(6,6-dimethyl-3,6-dihydro-2H-pyran-4-yl)-6-fluoro-7-(2-fluoro-3-pyridinyl)spiro[chromeno[2,3-b]pyridine-5,4′-[1,3]oxazol]-2′-amine]
0.7 nM	8 nM	CC1(C)CC(c2cnc3c(c2)[C@]2(COC(N)=N2)c2c(ccc(-c4cccnc4F)c2F)O3)=CCO1 [Example 349, (5R)-3-(2,2-dimethyl-3,6-dihydro-2H-pyran-4-yl)-6-fluoro-7-(2-fluoro-3-pyridinyl)spiro[chromeno[2,3-b]pyridine-5,4′-[1,3]oxazol]-2′-amine]
